According to ChEMBL document CHEMBL6134840 (J Med Chem, 2025):

Experiments:
[1] = Permeability across apical to basal side in human Caco-2 cells; format: ADME, cell-based
[2] = Stability in mouse liver microsome; format: ADME; settings: microsomes

- permeability [1]: Permeable
- Stability [2]: Stable
Structure (SMILES): O=S(=O)(Nc1ccc2ccccc2n1)c1ccccc1
